# Like-named read-outs stand apart in the source and are kept apart here.
# Columns and labels:
# Kp-2H7 = Kp-2H7 antibiotic susceptibility (MIC / growth in presence of antibiotics); assay type: cell-based, Klebsiella pneumoniae; conditions: for resistance of Kp-2H7 to antibiotic: FIG. 11 and Table 12, culture 37° C. 24 hours, absorbance 630 nm
# Experimental: The bacterium growths were determined based on the absorbance measurement at a wavelength of 630 nm.
# Ka-11E12 = Ka-11E12 antibiotic susceptibility (MIC / growth in presence of antibiotics); assay type: cell-based, Klebsiella aeromobilis; conditions: against Ka-11E12, Table 14
# Experimental: FIG. 36 is a graph for analyzing the Ka-11E12 growths in the presence of antibiotics. Ka-11E12 was cultured in a 96-well plate in the presence of different concentrations of the antibiotics at 37° C. for 24 hours. The bacterium growths were determined based on the absorbance measurement at a wavelength of 630 nm. Each data represents the mean±standard deviation based on the results of at least three independent experiments.
# [1] = Klebsiella pneumoniae, 24 h, read-out: MIC
# [2] = Klebsiella, 24 h, read-out: MIC
Compound,MIC (Kp-2H7; [1]),MIC (Ka-11E12; [2]),also measured
NCC[C@H](O)C(=O)N[C@@H]1C[C@H](N)[C@@H](O[C@H]2O[C@H](CN)[C@@H](O)[C@H](O)[C@H]2O)[C@H](O)[C@H]1O[C@H]1O[C@H](CO)[C@@H](O)[C@H](N)[C@H]1O [Amikacin],≤ 8 µg/mL,≤ 8 µg/mL,
CC1(C)S[C@@H]2[C@H](NC(=O)[C@H](N)c3ccccc3)C(=O)N2[C@H]1C(=O)O [Ampicillin],> 16 µg/mL,> 16 µg/mL,
C[C@H]1[C@H](NC(=O)/C(=N\OC(C)(C)C(=O)O)c2csc(N)n2)C(=O)N1S(=O)(=O)O [Aztreonam],≤ 1 µg/mL,≤ 1 µg/mL,
N[C@@H](C(=O)N[C@@H]1C(=O)N2C(C(=O)O)=C(Cl)CS[C@H]12)c1ccccc1 [Cefaclor],≤ 4 µg/mL,8 µg/mL,
Cc1nnc(SCC2=C(C(=O)O)N3C(=O)[C@@H](NC(=O)Cn4cnnn4)[C@H]3SC2)s1 [Cefazolin],1 µg/mL,> 4 µg/mL,
CO[C@@]1(NC(=O)CSCC#N)C(=O)N2C(C(=O)O)=C(CSc3nnnn3C)CS[C@@H]21 [Cefmetazole],≤ 8 µg/mL,16 µg/mL,
CO/N=C(\C(=O)N[C@@H]1C(=O)N2C(C(=O)O)=C(COC(C)=O)CS[C@H]12)c1csc(N)n1 [Cefotaxime],≤ 0.5 µg/mL,≤ 0.5 µg/mL,
CN(C)CCn1nnnc1SCC1=C(C(=O)O)N2C(=O)[C@@H](NC(=O)Cc3csc(N)n3)[C@H]2SC1 [Cefotiam],≤ 0.5 µg/mL,≤ 0.5 µg/mL,
CO/N=C(\C(=O)N[C@@H]1C(=O)N2C(C(=O)[O-])=C(C[n+]3cccc4c3CCC4)CS[C@H]12)c1csc(N)n1 [Cefpirome],≤ 4 µg/mL,≤ 4 µg/mL,
COCC1=C(C(=O)OC(C)OC(=O)OC(C)C)N2C(=O)[C@@H](NC(=O)/C(=N\OC)c3csc(N)n3)[C@H]2SC1 (some centres unmarked) [Cefpodoxime-Proxetil],≤ 1 µg/mL,≤ 1 µg/mL,
CC(C)(O/N=C(\C(=O)N[C@@H]1C(=O)N2C(C(=O)[O-])=C(C[n+]3ccccc3)CS[C@H]12)c1csc(N)n1)C(=O)O [Ceftazidime],≤ 1 µg/mL,≤ 1 µg/mL,
CO[C@@]1(NC(=O)CSC(F)F)C(=O)N2C(C(=O)O)=C(CSc3nnnn3CCO)CO[C@@H]21 [Flomoxef],≤ 8 µg/mL,≤ 8 µg/mL,
C[C@@H]1O[C@@H]1P(=O)(O)O [Fosfomycin],16 µg/mL,16 µg/mL,
C[C@H]1COc2c(N3CCN(C)CC3)c(F)cc3c(=O)c(C(=O)O)cn1c23 [Levofloxacin],≤ 1 µg/mL,≤ 1 µg/mL,
C[C@@H](O)[C@H]1C(=O)N2C(C(=O)O)=C(S[C@@H]3CN[C@H](C(=O)N(C)C)C3)[C@H](C)[C@H]12 [Meropenem],≤ 0.25 µg/mL,≤ 0.25 µg/mL,
CN(C)c1ccc(O)c2c1C[C@H]1C[C@H]3[C@H](N(C)C)C(O)=C(C(N)=O)C(=O)[C@@]3(O)C(O)=C1C2=O [Minocycline],≤ 2 µg/mL,≤ 2 µg/mL,
CCN1CCN(C(=O)N[C@@H](C(=O)N[C@@H]2C(=O)N3[C@@H]2SC(C)(C)[C@@H]3C(=O)O)c2ccccc2)C(=O)C1=O [Piperacillin],≤ 8 µg/mL,≤ 8 µg/mL,
Cc1ncc([N+](=O)[O-])n1CCO [metronidazole],,,resistance of Kp-2H7 to antibiotic (Kp-2H7): resistances
CN[C@@H]1[C@H](O)[C@H](NC)[C@H]2O[C@@]3(O)C(=O)C[C@@H](C)O[C@H]3O[C@@H]2[C@H]1O [spectinomycin],,,resistance of Kp-2H7 to antibiotic (Kp-2H7): resistances
CC[C@H]1OC(=O)C[C@@H](O)[C@H](C)[C@@H](O[C@@H]2O[C@H](C)[C@@H](O[C@H]3C[C@@](C)(O)[C@@H](O)[C@H](C)O3)[C@H](N(C)C)[C@H]2O)[C@@H](CC=O)C[C@@H](C)C(=O)/C=C/C(C)=C/[C@@H]1CO[C@@H]1O[C@H](C)[C@@H](O)[C@@H](OC)[C@H]1OC [tylosin],,,resistance of Kp-2H7 to antibiotic (Kp-2H7): resistances
Amoxicillin/Clavulanate,,,"MIC (Kp-2H7; against Kp-2H7, Table 12): ≤4 µg/mL; MIC (Ka-11E12): >16 µg/mL"
Gentamicin,,,"MIC (Kp-2H7; against Kp-2H7, Table 12): ≤2 µg/mL; MIC (Ka-11E12): ≤2 µg/mL"
Imipenem/Cilastatin,,,MIC (Kp-2H7): ≤0.25 µg/mL; MIC (Ka-11E12): ≤0.25 µg/mL
Sulbactam/Cefoperazone,,,"MIC (Kp-2H7; against Kp-2H7, Table 12): ≤4 µg/mL; MIC (Ka-11E12): ≤4 µg/mL"
Sulfamethoxazole-Trimethoprim,,,"MIC (Kp-2H7; against Kp-2H7, Table 12): ≤20 µg/mL; MIC (Ka-11E12): ≤ 20 µg/mL"
